{"source": "patent US20190000789A1", "about": "“COMPOSITION AND METHOD FOR TREATING INFECTIONS CAUSED BY VANCOMYCIN-RESISTANT INFECTIOUS AGENTS IN A SUBJECT” (priority 2015, published 2019)", "key": {"S. coelicolor M145": {"test_system": "S. coelicolor M145", "assay": "LC-MS analysis of peptidoglycan precursors", "type": "cell-based, Streptomyces coelicolor", "conditions": "M145 grown with 10 μg/ml vancomycin", "description": "(§1) In order to get more insights into the synthesis of vancomycin-sensitive (i.e., wild-type) or the alternate vancomycin-resistant peptidoglycan, the pool of peptidoglycan precursors was analyzed by Liquid Chromatography coupled to Mass Spectrometry (LC-MS). When cells produce wild-type PG, only the MurNac-pentapeptide with a D-Ala-D-Ala terminus are detected, while vancomycin-resistant PG precursors have a D-Ala-D-Lac terminus. To analyze the precursors produced in S. coelicolor M145 and its mutant derivatives LAG1 (Δddl) and LAG2 (Δddl vanS::IS466A) in the presence or absence of vancomycin, the strains were grown until exponential phase, after which the cultures were harvested, washed and the precursors extracted with 5% TCA. The supernatants were desalted, concentrated and analyzed by LC-MS (see Materials and Methods section).\n(§2) For the precursor isolation and identification, a modification of the method described previously by Hong and colleagues (Hong et al., 2004) was used. 10 μg vancomycin was added to the strains at the moment of inoculation. The strains were grown in NMMP (1% (w/v) Mannitol, 50 mM MgCl2) until mid-log phase (OD-0.3-0.4) and mycelia were harvested by centrifugation at 4° C. and washed in 0.9% NaCl. […] The elution was monitored at 254 nm and monitored by the sizes eluted (1193.8-1195.3)."}, "[1]": {"test_system": "S. coelicolor LAG1 (ddl null mutant)", "assay": "LC-MS analysis of peptidoglycan precursors", "type": "cell-based, Streptomyces coelicolor", "conditions": "LAG1 grown in the presence of vancomycin", "description": "as §1, §2"}, "[2]": {"test_system": "clinical isolates of vanA-positive Enterococcus faecium", "assay": "MIC of vancomycin by serial dilution, isolates not named individually", "type": "cell-based", "conditions": "for MIC: Enterococcus faecium", "description": "Having established the important role of D-Ala in enhancing the efficacy of vancomycin against vancomycin-resistant S. coelicolor cells, next, its effect on the resistance of clinical isolates of Enterococcus faecium, which were vanA-positive strains, was assessed. MIC values were calculated by testing a serial dilution of vancomycin in the presence or absence of D-Ala in triplicate (Table 3).\nThe MIC was determined by measurement of the OD600 or by visual assessment, following the Clinical Laboratory and Standards Institute (CLSI) guidelines. […] This value compares to intermediate instead of total resistance. The strains were serially diluted in a 96-well plate and growth was assayed at OD600. The steps down refer to CSLI guidelines for clinical MIC measurements.\nFive vanA-positive Enterococcus faecium strains were collected in 2011 and 2014 from patients in the Erasmus University Medical Centre, Rotterdam, The Netherlands. Presence of the vanA gene was confirmed by real-time PCR with the LIGHTCYCLER® 480 instrument (Roche Diagnostics, Almere, The Netherlands) with the primers vanA F1 and vanA R1, and the vanA probe. The resistance profile of these isolates was determined as MIC values using the VITEK II (BioMerieux) system AST-P586. To determine the MIC of vancomycin against E. faecium, cells were grown overnight on Trypticase Soy Agar (TSA) blood agar plates (Becton Dickinson, Breda, The Netherlands) and suspended in 0.9% NaCl until OD600 0.5 (±0.05). Of this suspension, 10 μl was dispensed into wells of sterile flat-bottom 96-well polystyrene tissue culture plates (Greiner Bio-One, Alphen aan Den Rijn, The Netherlands) containing serial dilutions of vancomycin in 190 μl of a 1:1 mixture of Fetal Bovine Serum (FBS) (Gibco, Bleiswijk, The Netherlands) and Iscove's Modified Dulbecco's Medium (IMDM) (without phenolred, Gibco, Bleiswijk, The Netherlands), and in the presence or absence of 50 mM D-alanine (Alfa Aesar, Ward Hill, Mass., USA). Plates were incubated for 18-24 hours at 37° C. and MIC values determined visually following the CLSI guidelines, or by spectrophotometer at 600 nm."}, "[3]": {"test_system": "S. coelicolor LAG2 (ddl suppressor mutant)", "assay": "MIC of vancomycin on MM agar plates with added D-Ala or L-Ala", "type": "cell-based, Streptomyces coelicolor", "conditions": "Streptomyces coelicolor", "description": "VanS is the sensory kinase of a two-component system formed with VanR, and it has been shown previously that certain mutations in vanS will constitutively upregulate the vancomycin resistance cluster, explaining the viability of strain LAG2 in the absence of vancomycin.\n(§3) Escherichia coli strains JM109 (Sambrook et al., 1989) and ET12567 (Kieser et al., 2000) were used for routine cloning procedures and for extracting non-methylated DNA, respectively. Cells of E. coli were grown in Luria-Berani broth (LB) at 37° C. Streptomyces coelicolor A3(2) M145 was the parent of all mutants described in this work. All media and routine Streptomyces techniques were carried out as described (Kieser et al., 2000). SFM (soy flour mannitol) agar plates were used for propagating S. coelicolor strains and to prepare spore suspensions. For liquid-grown cultures, S. coelicolor mycelia were grown in normal minimal media with phosphate (NMMP) supplemented with 1% (w/v) mannitol as the sole carbon source. The MIC of vancomycin against S. coelicolor M145 and its mutant derivatives were determined by growth on minimal media (MM) agar plates supplemented with 1% mannitol as the sole carbon source, and 0, 2, 4, 8, 16, 32, 64, 128, 256 or 512 μg/ml vancomycin, in combination with 0, 1, 5, 10 or 50 mM of D-Ala or L-Ala. The vanX deletion mutants have been tested with 1, 5, 10, 50 and 100 μM D-Ala and L-Ala."}, "[4]": {"test_system": "S. coelicolor M145 ΔvanX (LAG3)", "assay": "MIC of vancomycin on MM agar plates with added D-Ala", "type": "cell-based, Streptomyces coelicolor", "conditions": "Streptomyces coelicolor", "from_the_text": "VanX effectively eradicates the D-Ala-D-Ala dipeptide, thereby counteracting the accumulation of wild-type precursors and supporting vancomycin resistance (Lessard and Walsh, 1999; Tan et al., 2002). Therefore, a vanX null mutant was created using a similar strategy as for ddl, replacing the coding region of vanX by the apramycin resistance cassette aacC4. The mutant was created in both the parental strain S. coelicolor M145 and in its ddl suppressor mutant LAG2, generating LAG3 (M145 ΔvanX) and LAG4 (M145 Δddl ΔvanX vanS::IS466A), respectively.\nLAG4 produced 20% wt precursors prior to the addition of D-Ala.\nas §3"}}, "note": "Like-named read-outs stand apart in the source and are kept apart here.", "data": [{"compound": "CN[C@H](CC(C)C)C(=O)N[C@H]1C(=O)N[C@@H](CC(N)=O)C(=O)N[C@H]2C(=O)N[C@H]3C(=O)N[C@H](C(=O)N[C@H](C(=O)O)c4cc(O)cc(O)c4-c4cc3ccc4O)[C@H](O)c3ccc(c(Cl)c3)Oc3cc2cc(c3O[C@@H]2O[C@H](CO)[C@@H](O)[C@H](O)[C@H]2O[C@H]2C[C@](C)(N)[C@H](O)[C@H](C)O2)Oc2ccc(cc2Cl)[C@H]1O", "note": "[vancomycin]", "values": [{"measurement": "precursors of the vancomycin-insensitive variant (D-Ala-D-Lac)", "setting": "S. coelicolor M145", "value": 91.5, "unit": "%"}, {"measurement": "precursors containing the terminal D-Ala-D-Lac dipeptide", "setting": "[1]", "value": 95.7, "unit": "%"}, {"measurement": "MIC", "setting": "[2]; worst cases, 50 mM D-Ala", "value": 256, "unit": "µg/mL"}, {"measurement": "MIC", "setting": "[2]; worst cases, without D-Ala", "value": 4100, "unit": "µg/mL"}, {"measurement": "reduction of MIC of vancomycin in dilution steps", "setting": "[2]; all clinical isolates, 50 mM D-Ala", "value": "4-7 dilution steps"}, {"measurement": "MIC of vancomycin", "setting": "[2]; worst cases, 50 mM D-Ala", "value": 128, "unit": "µg/mL"}, {"measurement": "MIC", "setting": "[3]; LAG2, 0 mM D-Ala", "value": 128, "unit": "µg/mL"}, {"measurement": "MIC", "setting": "[3]; LAG2, 5 mM D-Ala", "value": 64, "unit": "µg/mL"}, {"measurement": "MIC", "setting": "[3]; LAG2, 10 mM D-Ala", "value": 32, "unit": "µg/mL"}, {"measurement": "MIC", "setting": "[3]; LAG2, 50 mM D-Ala", "value": 4, "unit": "µg/mL"}, {"measurement": "MIC", "setting": "[4]; read-out: MIC of vancomycin, M145 ΔvanX, 0 μM D-Ala", "value": 32, "unit": "µg/mL"}, {"measurement": "MIC", "setting": "[4]; read-out: MIC of vancomycin, M145 ΔvanX, 10 μM D-Ala", "value": 16, "unit": "µg/mL"}, {"measurement": "MIC", "setting": "[4]; read-out: MIC of vancomycin, M145 ΔvanX, 50 μM D-Ala", "value": 1, "unit": "µg/mL"}, {"measurement": "MIC", "setting": "[4]; read-out: MIC of vancomycin, M145 ΔvanX, 50 μg/ml D-Ala", "value": 1, "unit": "µg/mL"}, {"measurement": "MIC", "setting": "[4]; read-out: MIC of vancomycin, M145 ΔvanX, 100 μM D-Ala", "value": 1, "unit": "µg/mL"}]}]}
